We go through eight molecules from article PMC10577379, “Isolation of anticancer bioactive secondary metabolites from the sponge-derived endophytic fungi Penicillium sp. and in-silico computational docking approach” (Frontiers in Microbiology, 2023).

In brackets after ≈: the same amount, converted by molar mass. Entries after “also recorded” stand apart in the source; their conditions may differ. Like-named read-outs stand apart in the source and are kept apart here.

Test [1] relates to Mycobacterium tuberculosis H37Ra (ATCC 25177). Kind of test: Anti-tuberculosis assay (MIC). The test is classed as cell-based. Conditions: M. tuberculosis H37Ra, read-out: Antitubercular activity MIC. Here is the method:
The H37Ra strain of Mycobacterium tuberculosis (ATCC 25177) purchased from the American Type Culture Collection (ATCC) was used in the anti-TB bioassay. The anti-tuberculosis assay was based on the one used by Wang et al. ([2015b]). INH (Isoniazid) was used as the positive control, and DMSO was used as a negative control. For the minimum inhibitory concentration (MIC) analysis, 100 μl of Mycobacterium suspension was prepared in a 96-well microtiter plate. A total of […] of double serial dilution of various concentrations of 7 isolated compounds (from 0.08 to 20 μg/mL) alongside the positive control isoniazid (1 to 417 μg/mL) was added to the well.

Test [2] deals with Staphylococcus aureus (CGMCC 1.230). Briefly: Antimicrobial assay (MIC). The test is classed as cell-based. Conditions: CGMCC1, 37°C, 24 h, read-out: MIC S. aureus.
In test [3] the test system is Escherichia coli (CGMCC 1.2385). Briefly: Antimicrobial assay (MIC). Type of test: cell-based. Conditions: CGMCC1, 37°C, 24 h.
In a further test the test system is A549. Kind of test: Cytotoxicity, Cell Counting Kit (CCK-8). Type of test: cell-based. The conditions noted are these: Homo sapiens, CCK-8, mean ± SD, n = 3, unit from b62 and Table S1 title (there headed MIC). Here is the method: (§1) Cytotoxicity was assessed using the Cell Counting Kit (CCK-8) (Dojindo, Japan) method adopted by Wang et al. ([2015a]). Cancer cell lines used in this study included K562, MCF-7, A549, HuH-7, H1975, HeLa, HL7702, DU145, HL60, MOLT-4. Additionally, a normal cell line, MCF10A, was included. All cell lines were procured from Shanghai Cell Bank, Chinese Academy of Sciences. Cells were routinely grown and maintained in RPMI or DMEM media with 10% Fetal Bovine Serum and 1% penicillin/streptomycin. Various concentrations of seven isolated compounds from Penicillium sp. were dissolved in 100% DMSO with a maximum concentration of 200 μg/mL and serially diluted to a final 0.1% DMSO concentration to treat cells for […]. Taxol was used as a positive control, and DMSO was used as a negative control. Cytotoxicity screening assay experiments were conducted in triplicate to obtain the standard error ± mean value. The percentage of cytotoxicity (IC50) alongside the selectivity index was then calculated using the formula:
(§2) IC50=(absorbance of the cell without treatment -absorbance of cells with treatment/ absorbance of the cell without treatment)× 100
(§3) Selective index (SI)=CC50value for normal cells/IC50for cancer cells
A general note: Formazan colour is commonly taken as a measure of viable cells.

For a further test, the system named is DU145. Kind of test: Cytotoxicity, Cell Counting Kit (CCK-8). The test is classed as cell-based. The conditions noted are these: Homo sapiens, DU-145; CCK-8, mean ± SD, n = 3; unit from b62 and Table S1 title (there headed MIC). Here is the method: as §1, §2, §3
The next test has as its system H1975. Kind of test: Cytotoxicity, Cell Counting Kit (CCK-8). The conditions noted are these: Homo sapiens, NCI-H1975; CCK-8, mean ± SD, n = 3; unit from b62 and Table S1 title (there headed MIC). The test is classed as cell-based. Here is the method: as §1, §2, §3
The next test relates to HL7702. Kind of test: Cytotoxicity, Cell Counting Kit (CCK-8). Type of test: cell-based. Conditions: Homo sapiens, L02; CCK-8, mean ± SD, n = 3; unit from b62 and Table S1 title (there headed MIC). Here is the method: as §1, §2, §3
The test system of the next test is HeLa. Kind of test: Cytotoxicity, Cell Counting Kit (CCK-8). The test is classed as cell-based. Conditions: Homo sapiens, CCK-8, mean ± SD, n = 3, unit from b62 and Table S1 title (there headed MIC). Here is the method:
as §1, §2, §3

A further test has as its system Huh-7. Briefly: Cytotoxicity, Cell Counting Kit (CCK-8). The test is classed as cell-based. Conditions: Homo sapiens, CCK-8, mean ± SD, n = 3, unit from b62 and Table S1 title (there headed MIC). Here is the method:
as §1, §2, §3

In a further test the test system is K562. Briefly: Cytotoxicity, Cell Counting Kit (CCK-8). The conditions noted are these: Homo sapiens, CCK-8, mean ± SD, n = 3, unit from b62 and Table S1 title (there headed MIC). Type of test: cell-based. Here is the method: as §1, §2, §3
Another test has as its system MCF-7. Kind of test: Cytotoxicity, Cell Counting Kit (CCK-8). Type of test: cell-based. Conditions: Homo sapiens, MCF7; CCK-8, mean ± SD, n = 3; unit from b62 and Table S1 title (there headed MIC). Here is the method: as §1, §2, §3
For the next test, the system named is MOLT-4. Briefly: Cytotoxicity, Cell Counting Kit (CCK-8). The test is classed as cell-based. The conditions noted are these: Homo sapiens, CCK-8, mean ± SD, n = 3, unit from b62 and Table S1 title (there headed MIC). Here is the method:
as §1, §2, §3

For another test, the system named is HL60 cells. Briefly: Cytotoxicity, Cell Counting Kit (CCK-8). Type of test: cell-based, human. The conditions noted are these: for IC50: Homo sapiens; for anticancer activity toward HL60 cells: in words. Here is the method: as §1, §2, §3
The next test relates to MCF-10A. Kind of test: Cytotoxicity, Cell Counting Kit (CCK-8), normal cell line. The test is classed as cell-based. The conditions noted are these: Homo sapiens, CCK-8, n = 3, unit from Table S1 title. Here is the method: as §1, §2, §3
The next test concerns cancer cell lines. Kind of test: Anticancer screening, whole cell line panel. The conditions noted are these: in-vitro screening, tested cell lines, in words. The test is classed as cell-based. Here is the method: as §1, §2, §3
The test system of another test is K562 cell lines. Further details: method as in Hong et al., 2007. Conditions: averufin from Penicillium flavidorsum SHK1-27; ref Hong et al., 2007; cited from earlier work.
Another test relates to SGC-7901 cell line. The arrangement: method as in Yang et al., 2009. The conditions noted are these: in words; ref Yang et al., 2009; cited from earlier work.
[4] abbreviates: HL-60, CCK-8, mean ± SD, n = 3, unit from b62 and Table S1 title (there headed MIC), read-out: IC50 HL60.

Broadly, the MIC is the least concentration at which growth counts as inhibited. For the molecule `NNC(=O)c1ccncc1` [INH, Isoniazid, reference compound], the MIC in test [1] amounted to 3.98 µM (≈ 0.546 µg/mL).

As for `O=C(O)c1cn(C2CC2)c2cc(N3CCNCC3)c(F)cc2c1=O` [ciprofloxacin, Ciprofloxacin], the MIC was determined as 2.96 µM (≈ 0.981 µg/mL) in test [2] and 0.19 µM (≈ 0.063 µg/mL) in test [3].

`CCCCC[C@@H](c1ccc(Oc2cc(C)cc(O)c2)cc1)c1c(O)cc2c(c1O)C(=O)c1cc(O)cc(O)c1C2=O` [Compound 2, aspergilol-A]: the minimal inhibitory concentration (MIC) in test [1] is more than 50 µM.

As for `Cc1cc(O)cc(Oc2cc(C)cc(O)c2)c1` [Compound 7, diorcinol], the MIC in test [1] is more than 50 µM.

Turning to `CC12CCCC(O1)c1c(cc3c(c1O)C(=O)c1c(O)cc(O)cc1C3=O)O2` (stereo not drawn) [Compound 1, averufin], the IC50 in the test with A549 amounted to 76.1 ± 0.01 µM; with DU145, 91.2 ± 0.01 µM; in the test with H1975, 8.64 ± 0.01 µM; in the test on HL7702, 3.57 ± 0.01 µM; with HeLa, 8.11 ± 0.01 µM; with Huh-7, 3.13 ± 0.01 µM. Moreover, the IC50 was 17.4 ± 0.01 µM in the test with K562; 6.71 ± 0.01 µM with MCF-7; 5.77 ± 0.01 µM in the test with MOLT-4; 1000 nM in the test with HL60 cells (HL-60, read-out: IC50 concentration, HL60 cell lines); 1000 nM in the test on HL60 cells (setting [4]); not below 50 µM with MCF-10A. Further, the “anticancer activity toward HL60 cells” value in the test with HL60 cells is reported as “strong anticancer activity”. Also, in the test on cancer cell lines, the “anticancer effect against cancer cell lines” value was “significant anticancer effect”. Besides, the MIC in test [1] was more than 50 µM. The “MIC, antitumor activity toward K562 cell lines” value with K562 cell lines was 72.4 µmol/L (≈ 26.7 µg/mL).

For `COc1cc(O)cc2c1C(=O)c1c(O)cc(C)cc1C2=O` [Compound 5, methyl emodin], the IC50 was 81.3 ± 0.01 µM in the test on A549; 101.4 ± 0.01 µM with DU145; 43.5 ± 0.01 µM with H1975; 67.2 ± 0.01 µM in the test with HL7702; 24.9 ± 0.01 µM with HeLa; 25.1 ± 0.01 µM with Huh-7. Also, the IC50 with K562 is 16.3 ± 0.01 µM; with MCF-7, 54.3 ± 0.01 µM; with MOLT-4 it was 13.6 ± 0.01 µM; with HL60 cells (setting [4]) it was 13200 ± 10 nM; with MCF-10A, not below 50 µM. Also, the “anticancer activity toward HL60 cells” value in the test on HL60 cells was “moderate activity”. The “anticancer effect against cancer cell lines” value in the test with cancer cell lines is reported as “significant anticancer effect; also recorded: weak anticancer effect”. Moreover, the minimum inhibitory concentration (MIC) in test [1] is more than 50 µM. For the same molecule, in the test on SGC-7901 cell line, the “anticancer effect against the SGC-7901 cell line” value is reported as “moderate anticancer effect”.

Consider `COC(=O)c1cc(O)cc(OC)c1C(=O)c1c(O)cc(C)cc1O` [Compound 3, sulochrin], for which, in test [1], the MIC was more than 50 µM.

Take `CC(=O)O[C@H]1C(=O)[C@@]2(C)[C@H]([C@H](OC(=O)c3ccccc3)[C@]3(O)C[C@H](OC(=O)[C@H](O)[C@@H](NC(=O)c4ccccc4)c4ccccc4)C(C)=C1C3(C)C)[C@]1(OC(C)=O)CO[C@@H]1C[C@@H]2O` [Taxol, reference compound]: the IC50 with A549 was 0.024 ± 0.01 µM; with DU145 it was 0.015 ± 0.01 µM; with H1975 it was 0.014 ± 0.01 µM; in the test with HL7702 it was 0.003 µM; in the test on HeLa, 0.003 µM; with Huh-7, 0.003 µM. In addition, the IC50 in the test with K562 was 0.003 µM; in the test on MCF-7 it was 0.002 µM; in the test with MOLT-4 it was 0.003 µM; in the test on HL60 cells (setting [4]), 2 nM; in the test on MCF-10A it was not below 50 µM.
